According to patent US20150111852A1, “1-Di(sec-butyl)-phosphinoyl-pentane (dapa-2-5) as a topical agent” (priority 2013, published 2015):
Values after ≈ are worked out from the molar mass of the structure shown.

Key:
[1] = test system: 0.1 N HCl-induced swallowing, pharyngolaryngeal region; assay: Acid-induced swallowing movements in the anesthetized rat; format: in vivo; conditions: for Relative Potency (suppression of swallowing): DAPA-2-5 = 1.0
From the text: A principal endogenous irritant in the linings of the upper aerodigestive tract is hydrochloric acid. Acid stimulations of the mucosa of the pharynx will elicit reflex swallowing. […] In a rat animal model, solutions of organic acids such as acetic acid and citric acid were effective in eliciting swallowing [Kajii et al., Sour taste stimulation facilitates reflex swallowing from the pharynx and larynx in the rat Physiology & Behavior 77: 321-325, 2002]. In the present discovery, the method for measuring sensory responses to acid was adapted for screening agents that might suppress the sensitivity to hydrochloric acid. Agents that suppress the acid challenge may then have utility in relieving the discomfort of heartburn.
Experiments were conducted at the Pavlov Institute of Physiology, St. Petersburg, Russia. Adult male Wistar rats, weighing 200 to 400 g, were obtained from the Roppolovo Vivarium. All rats were anesthetized with sodium pentobarbital/urethane and fixed in the supine position. Body temperature was maintained at 37.0° C. with a heating pad. A midline incision was made in the ventral surface of the neck and the trachea was cannulated. A guide tube (polyethylene, diameter 2.2 mm) was fixed at the midline of the hard palate and an internal infusion tube (polyethylene, diameter 0.9 mm) was then placed flush to the end of soft palate. This procedure allows stimulation of the pharyngolaryngeal region with liquids, with minimum mechanical perturbation. An esophageal tube was placed at the thoracic level to drain solutions after infusion. The infused solution was applied to the pharyngolaryngeal region at a flow rate of 1.5 pUs for 20 sec using an infusion pump, giving a total unit volume of approximately 30 μL. Stimulations were applied at intervals of 2 to 3 min, with intervals allowed for rinsing and cleansing with suction. The solutions infused were distilled water, normal saline, 0.1 N hydrochloric acid, or test compounds dissolved in normal saline. A paired unipolar electrode was inserted into unilateral mylohyoid muscle to record electromyogram (EMG) activity and the signal processed for later analysis. Swallowing movements was identified as the EMG activity and could also be visualized as laryngeal movement. The number of swallows in a fixed interval was used as the endpoint.
The test procedures were similar to those described earlier (see, e.g., Kajii et al., 2002). Also, the drainage of the esophagus was at the thoracic level to avoid mechanical disturbance of the pharynx. The infusion rate of solutions was 1.5 μL/sec for 15 to 18 sec.
The response to 0.1 N HCl infusion (30 μL over an approximately 18 second period) was highly reproducible. On average there were 36±4 swallowing movements within one min (N=7 rats). This response could be elicited in the same rat over a 2 hour period with a rest period or saline infusions at 10 min intervals.
The up-down method of Dixon [Efficient analysis of experimental observations. Ann. Rev. […] The EC50 (N=8) for DAPA-2-5 was estimated to be 0.09 mg/mL.

Strains TA 98 and TA100 = assay: Ames test; format: cell-based; conditions: Strains TA 98 and TA100, with and without liver activation
Protocol: Preliminary toxicological studies were conducted on DAPA-2-5 and DAPA-2-7.

[2] = Repeated-dose toxicity in male rats (organ weights, histology); format: in vivo, rat
Protocol: DAPA-2-7, dissolved in 3% ethanol/97% 1,2-propanediol, or vehicle alone, was administered subcutaneously to male rats (N=8 per group) at 30 mg/kg body weight daily for 7 days, and on the 8th day, the animals were euthanized with sodium pentobarbital and the major organs (body, heart, liver, lungs, kidney, testes, brain) were removed and weighed. Heart tissues (ventricle and heart valves) and liver samples were stained with hematoxylin and eosin and the histology examined.
In a large scale trial, DAPA-2-5 was administered via drinking water to male rats for 40 days. The DAPA-2-5 was mixed with condensed milk [8.5%] at 0.5 mg/mL and liquid consumption was monitored. The averaged intake in the treated group [N=12 rats] was 41 mg/kg body weight/day for 40 days. The vehicle alone group was N=11.

[3] = test system: throat, airway and chest discomfort; assay: Case studies with DAPA-2-5 tablets in human subjects; format: in vivo; conditions: for precipitation of “ice cream headache” (Case Study 5): ODT-A 2 mg
[4] = target: T1, TRPV1 channels (human TRPV1 gene expressed in HEK293 cells) (Homo sapiens, UniProt Q8NER1); assay: TRPV1 agonist assay; format: cell-based
T1 construct: expressed in transfected cells; host or cells: HEK293 cells
T1 sequence (Q8NER1 whole entry): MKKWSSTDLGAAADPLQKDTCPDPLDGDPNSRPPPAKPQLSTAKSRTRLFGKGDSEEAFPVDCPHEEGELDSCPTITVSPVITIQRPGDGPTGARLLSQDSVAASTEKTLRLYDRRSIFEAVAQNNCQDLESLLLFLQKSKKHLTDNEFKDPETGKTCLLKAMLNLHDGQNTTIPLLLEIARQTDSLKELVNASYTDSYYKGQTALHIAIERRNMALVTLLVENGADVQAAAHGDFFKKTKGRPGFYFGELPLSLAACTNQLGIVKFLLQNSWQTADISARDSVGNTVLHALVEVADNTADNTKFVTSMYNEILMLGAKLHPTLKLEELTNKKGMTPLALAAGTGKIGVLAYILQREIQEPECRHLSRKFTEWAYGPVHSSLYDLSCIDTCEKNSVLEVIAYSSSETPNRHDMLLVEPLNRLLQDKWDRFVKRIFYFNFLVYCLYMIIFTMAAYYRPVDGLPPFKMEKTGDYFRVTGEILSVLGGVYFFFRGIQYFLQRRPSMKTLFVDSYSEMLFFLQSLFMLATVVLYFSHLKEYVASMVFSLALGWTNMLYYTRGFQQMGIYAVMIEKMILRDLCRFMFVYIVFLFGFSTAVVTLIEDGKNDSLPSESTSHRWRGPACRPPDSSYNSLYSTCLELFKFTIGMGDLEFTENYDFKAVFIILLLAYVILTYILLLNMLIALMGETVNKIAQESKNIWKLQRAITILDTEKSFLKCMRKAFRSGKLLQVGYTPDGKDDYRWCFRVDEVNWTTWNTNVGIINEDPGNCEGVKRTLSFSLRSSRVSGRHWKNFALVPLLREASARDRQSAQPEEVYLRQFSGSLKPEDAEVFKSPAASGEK
Protocol: To examine the specificity of the test compounds, further studies were conducted on TRPV1 channels (human TRPV1 gene expressed in HEK293 cells) and TRPA1 channels (human TRPA1 gene expressed in CHO cells). The test cells were Chinese Hamster Ovary (CHO) cells or Human Embyronic Kidney (HEK) 293 cells transfected with human TRPV1 or TRPA1 cDNAs.

[5] = test system: isolated normal mouse vagus; assay: Capsaicin-induced depolarization of isolated vagus nerve, wild type
Protocol: To examine the ability of DAPA-2-5 to suppress sensory discomfort, it was tested in an animal model developed at the Imperial College, London, U.K. [Birrell et al. TRPA1 agonists evoke coughing in guinea pig and human volunteers. Amer. J. Respiratory and Critical Care Medicine 180, 1042-7, 2009; Patel et al., Inhibition of guinea-pig and human sensory nerve activity and the cough reflex in guinea-pigs by cannabinoid (CB2) receptor activation. British J. Pharmacol. 140, 261-8 2003]. In this in vitro assay, segments of the vagus nerve are placed on a platform and the electrical activity is recorded after topical application of capsaicin. Capsaicin is a known irritant that elicits pain when it is applied to the skin and it will depolarize the isolated vagus. The ability of substances to inhibit this capsaicin-induced depolarization is measured.
Briefly, segments of vagus nerve, caudal to the nodose ganglion, were removed from mice with fine forceps and segments placed in oxygenated Krebs solution and bubbled with 95% O2/5% CO2. The desheathed nerve trunk was mounted in a ‘grease-gap’ recording chamber and constantly superfused with Krebs solution with a flow rate of approximately 2 mL/min, and the electrical activity of the nerve monitored with electrodes. The temperature of the perfusate was kept constant at 37° C. by a water bath. […]

[6] = male rats, 30 mg/kg subcutaneously daily for 7 days

CCCCCCCP(=O)(C(C)C)C(C)C [DAPA-1-7, 1-Di(isopropyl)-phosphinoyl-heptane]
Relative Potency (suppression of swallowing) [1]: 0.11

CCCCCCCP(=O)(C(C)CC)C(C)CC (stereo not drawn) [DAPA-2-7, 1-Di(sec-butyl) phosphinoyl-heptane]
mutagenic in the Ames test (Strains TA 98 and TA100): Neither of these compounds was mutagenic
Relative Potency (suppression of swallowing) [1]: 0.45
Comments (duration of inhibition) ([1]; rat, in vivo): >~30 min
Comments (reversibility of inhibition) ([1]; rat, in vivo): long-lasting;
differences in body or organ weights vs vehicle [2, 6]: no significant differences
heart and liver histology [2, 6]: normal
precipitation of “ice cream headache” (Case Study 5) [3]: Neither of the ODT precipitated a headache response

CCCCCCCCP(=O)(C(C)CC)C(C)CC (stereo not drawn) [DAPA-2-8, 1-Di(sec-butyl) phosphinoyl-octane]
Relative Potency (suppression of swallowing) [1]: 0.16

CCCCCP(=O)(C(C)CC)C(C)CC (stereo not drawn) [DAPA-2-5, 1-Di(sec-butyl)-phosphinoyl-pentane]
mutagenic in the Ames test (Strains TA 98 and TA100): Neither of these compounds was mutagenic
swallows after second acid challenge ([1]; DAPA-2-5 0.4 mg/mL, 10 min after, 8 min after): 9 swallows per min
swallows after third acid challenge ([1]; DAPA-2-5 0.4 mg/mL, 15 min after, after saline rinse, 22 min after): 27 swallows/min
swallows after first acid challenge ([1]; DAPA-2-5 0.4 mg/mL, challenge 5 min later, within 3 min): 3 swallows/min
Relative Potency (suppression of swallowing) [1]: 1.0
EC50 ([1]; Rattus norvegicus, up-down method, 50% reduction of swallowing frequency, N=4 to 8, read-out: EC50 ± S.E.M. (mg/mL), suppression of acid-induced swallowing): 0.09 mg/mL (≈ 387 µM)
Comments (duration of inhibition) ([1]; rat, in vivo): ~15 min
Comments (reversibility of inhibition) ([1]; rat, in vivo): reversible;
difference in organ weights or histology vs vehicle ([2]; male rats, via drinking water, averaged intake 41 mg/kg body weight/day for 40 days): no statistical difference
difference in organ weights or histology vs vehicle ([2]; rats, 20 mg/kg perioral by gavage for 7 days): no statistical difference
times less potent than DAPA-2-6 in stimulating TRPV1 [4]: 54
effective in reducing throat discomfort (Case Study 7) ([3]; ODT-A 1.0 mg as needed, six women): 100%
hoarseness and loss of voice (Case Study 6) ([3]; ODT-A 1 mg, twenty trials): immediate relief from throat discomfort
choking and gagging in asthma (Case Study 4) ([3]; ODT-A 1 mg, two subjects): effective in controlling choking and gagging
cough in cough variant asthma (Case Study 4) ([3]; ODT-A 1.5 mg, two or three tablets at a time, after a week's trial): completely under control
precipitation of “ice cream headache” (Case Study 5) [3]: Neither of the ODT precipitated a headache response
relief of hoarseness (Case Study 1) ([3]; ODT-A, 1 to 1.5 mg, person, five occasions): fully effective in relieving their hoarseness
time to disappearance of chest discomfort (Case Study 8, second person) ([3]; four tablets with water): about 10 min
snoring (Case Study 9) ([3]; tablets 2 mg before sleep): stopped snoring
time to relief of chest discomfort (Case Study 8) ([3]; three tablets, each 1.5 mg): ≤ 5 min
hiccups (Case Study 5) ([3]; two DAPA-2-5 ODT): stopped within several min
throat discomfort from acid reflux (Case Study 5) ([3]; two DAPA-2-5 ODT): immediately controlled their throat discomfort from acid reflux
nasal congestion (Case Study 2) ([3]; two tablets of 1 mg or one of 1.5 mg, with viral cold): effective remedy
depolarization evoked by the compound itself [5]: did not evoke depolarization
inhibition at 1000 µg/mL ([5]; Mus musculus, 10 min, 1 mg/mL for 10 min, capsaicin 1 μM, read-out: per cent inhibition of capsaicin-induced depolarization): ~60%

CCCCCCP(=O)(C(C)CC)C(C)CC (stereo not drawn) [DAPA-2-6, 1-Di(sec-butyl) phosphinoyl-hexane]
Relative Potency (suppression of swallowing) [1]: 0.05
inhibitory activity for swallowing relative to DAPA-2-5 ([1]; rat, in vivo): 5%
